Measured values taken from patent US20040200144A1, “Plant growth regulator and a method of producing the regulator” (Dainichiseika Color & Chemicals Mfg. Co., Ltd., priority 2003, published 2004).

How the values were obtained:
Type in all cases: in vivo
[1] = tested on: carrot young plants; assay: Dwarfing test of carrot young plant; conditions: for Plant Height / Dwarfing Rate: 5 ml per cell on 5th day, measured 27th day; for Dwarfing Rate: vs comparative group
Protocol: Dwarfing rate (%)=[(the plant height of the comparative group)−(the plant height of an addition group)/the plant height of the comparative group]×100
(§1) 50 g of sodium tripolyphosphate was dissolved in 400 ml of distilled water at 80° C., 17.5 g of cinnamic acid was added to the sodium tripolyphosphate solution and dissolved by stirring, the resultant solution was diluted with distilled water until the total volume of solution was 500 ml, and thus 3.5% cinnamic acid aqueous solution (pH 6.5) was prepared. The aqueous solution was further diluted with distilled water 70 times or 17.5 times, and 0.05% cinnamic acid aqueous solution and 0.2% cinnamic acid aqueous solution were prepared, respectively.
Nursery soil for house use was filled into paper joint pots (each with 24 cells: 34×43×50 mm/cell), water was sufficiently given to the soil, and seeds of carrots were sowed. After seeding, the pot was placed in the same greenhouse as described above to sprout. Subsequently, on the 5th day, the cinnamic aqueous acid solutions were added to the nursery soil in the joint pots. One of the joint pots (24 cells) was prepared as a 0.05% cinnamic acid aqueous solution addition group, and 5 ml of the 0.05% cinnamic acid aqueous solution was added to the nursery soil of each cell. Another one of the join pots was prepared as a 0.2% cinnamic acid aqueous solution addition group, and 5 ml of the 0.2% cinnamic acid aqueous solution was added to the nursery soil of each cell. The other one of the joint pots was prepared as a comparative group in which 5 ml of water is added to each cell, instead of the cinnamic acid aqueous solution. Subsequently, the cultivation of carrot young plants in each group was continued under general conditions. On the 27th day, the heights of young plants in each group were measured, the dwarfing rate (%) was calculated, and the dwarfing effect of cinnamic acid aqueous solution on carrot young plants was examined. […]

[2] = tested on: onion young plants; assay: Dwarfing test of onion young plant; conditions: for Plant Height / Dwarfing Rate: 5 ml per cell on 5th day, measured 27th day; for Dwarfing Rate: vs comparative group
Protocol: as §1
(§2) Nursery soil for house use was filled into paper joint pots (each with 24 cells: 34×43×50 mm/cell), water was sufficiently given to the soil, and seeds of carrots were sowed. After seeding, the pot was placed in the same greenhouse as described above to sprout. Subsequently, on the 5th day, the cinnamic aqueous acid solutions were added to the nursery soil in the joint pots. One of the joint pots (24 cells) was prepared as a 0.05% cinnamic acid aqueous solution addition group, and 5 ml of the 0.05% cinnamic acid aqueous solution was added to the nursery soil of each cell. Another one of the join pots was prepared as a 0.2% cinnamic acid aqueous solution addition group, and 5 ml of the 0.2% cinnamic acid aqueous solution was added to the nursery soil of each cell. The other one of the joint pots was prepared as a comparative group in which 5 ml of water is added to each cell, instead of the cinnamic acid aqueous solution. Subsequently, the cultivation of carrot young plants in each group was continued under general conditions. On the 27th day, the heights of young plants in each group were measured, the dwarfing rate (%) was calculated, and the dwarfing effect of cinnamic acid aqueous solution on carrot young plants was examined. […].
In the same way as in Example 5 except that seeds of onion were sowed, the dwarfing effect of cinnamic acid aqueous solution on onion young plants was examined. […]

[3] = tested on: Japanese radish young plants; assay: Dwarfing test of Japanese radish young plant; conditions: for Plant Height / Dwarfing Rate: 5 ml per cell on 5th day, measured 27th day; for Dwarfing Rate: vs comparative group
Protocol: as §1, §2
In the same way as in Example 5 except that seeds of Japanese radish were sowed, the dwarfing effect of cinnamic acid aqueous solution on Japanese radish young plants was examined. […]

[4] = tested on: squash young plants; assay: Dwarfing test of squash young plant; conditions: for Plant Height / Dwarfing Rate: 5 ml per cell on 7th day, measured 20th day; for Dwarfing Rate: vs comparative group
Protocol: After seeding, the pot was placed in the same greenhouse as described above to sprout. Subsequently, on the 5th day, the cinnamic aqueous acid solutions were added to the nursery soil in the joint pots. One of the joint pots (24 cells) was prepared as a 0.05% cinnamic acid aqueous solution addition group, and 5 ml of the 0.05% cinnamic acid aqueous solution was added to the nursery soil of each cell. Another one of the join pots was prepared as a 0.2% cinnamic acid aqueous solution addition group, and 5 ml of the 0.2% cinnamic acid aqueous solution was added to the nursery soil of each cell. […] Subsequently, the cultivation of carrot young plants in each group was continued under general conditions. On the 27th day, the heights of young plants in each group were measured, the dwarfing rate (%) was calculated, and the dwarfing effect of cinnamic acid aqueous solution on carrot young plants was examined. From the results in Table 5, it became evident that the 0.05% and 0.2% cinnamic acid aqueous solutions are effective in dwarfing carrot young plants. In the same way as in Example 5 except that seeds of cauliflower were sowed, the cinnamic acid solutions were added to the nursery soil in the joint pot on the 4th day, and that heights of young plants in each group were measured on the 20th day, the dwarfing effect of cinnamic acid aqueous solution on cauliflower young plants was examined. From the results in Table 12, it became evident that the cinnamic acid aqueous solutions are effective in dwarfing cauliflower young plants. In the same way as in Example 12 except that seeds of tomato were sowed, and that the cinnamic acid solutions were added to the nursery soil of the joint pot on the 7th day, the dwarfing effect of cinnamic acid aqueous solution on tomato young plants was examined. From the results in Table 17, it became evident that the cinnamic acid aqueous solutions are effective in dwarfing tomato young plants. In the same way as in Example 17 except that seeds of squash were sowed, the dwarfing effect of cinnamic acid aqueous solution on squash young plants was examined. From the results in Table 20, it became evident that the cinnamic acid aqueous solutions are effective in dwarfing squash young plants.

[5] = tested on: newmelon young plants; assay: Dwarfing test of newmelon young plant; conditions: for Plant Height / Dwarfing Rate: 5 ml per cell on 7th day, measured 27th day; for Dwarfing Rate: vs comparative group
Protocol: as §1, §2
In the same way as in Example 12 except that seeds of tomato were sowed, and that the cinnamic acid solutions were added to the nursery soil of the joint pot on the 7th day, the dwarfing effect of cinnamic acid aqueous solution on tomato young plants was examined. […].
In the same way as in Example 17 except that seeds of watermelon were sowed, and that plant heights were measured on the 27th day, the dwarfing effect of cinnamic acid aqueous solution on watermelon young plants was examined. […].
In the same way as in Example 21 except that seeds of newmelon were sowed, the dwarfing effect of cinnamic acid aqueous solution on newmelon young plants was examined. […]

For O=C(O)C=Cc1ccccc1 [cinnamic acid], the “Plant Height” value ([1]; 0.05% aqueous solution) was 7.9 cm, the “Dwarfing Rate” value ([1]; 0.05% aqueous solution) was 7.1% and the “Plant Height” value ([1]; 0.2% aqueous solution) was 6.9 cm. The “Dwarfing Rate” value ([1]; 0.2% aqueous solution) was 18.8%, the dwarfing effect ([1]; carrot young plants, 0.05% and 0.2% aqueous solutions) was “effective” and the “Plant Height” value ([2]; 0.05% aqueous solution) was 8.0 cm. For the same compound, the “Dwarfing Rate” value ([2]; 0.05% aqueous solution) was 15.8%, the “Plant Height” value ([2]; 0.2% aqueous solution) was 7.5 cm and the “Dwarfing Rate” value ([2]; 0.2% aqueous solution) was 21.1%. The dwarfing effect ([2]; onion young plants, 0.05% and 0.2% aqueous solutions) was “effective”, the “Plant Height” value ([3]; 0.05% aqueous solution) was 15.3 cm and the “Dwarfing Rate” value ([3]; 0.05% aqueous solution) was 1.9%. The “Plant Height” value ([3]; 0.2% aqueous solution) was 10.9 cm, the “Dwarfing Rate” value ([3]; 0.2% aqueous solution) was 30.1% and the dwarfing effect ([3]; Japanese radish young plants, 0.05% and 0.2% aqueous solutions) was “effective”. For the same compound, the “Plant Height” value ([4]; 0.05% aqueous solution) was 6.3 cm, the “Dwarfing Rate” value ([4]; 0.05% aqueous solution) was 27.6% and the “Plant Height” value ([4]; 0.2% aqueous solution) was 4.3 cm. For the same compound, the “Dwarfing Rate” value ([4]; 0.2% aqueous solution) was 50.6%, the dwarfing effect ([4]; squash young plants, 0.05% and 0.2% aqueous solutions) was “effective” and the “Plant Height” value ([5]; 0.05% aqueous solution) was 7.3 cm. The “Dwarfing Rate” value ([5]; 0.05% aqueous solution) was 6.4%, the “Plant Height” value ([5]; 0.2% aqueous solution) was 4.9 cm and the “Dwarfing Rate” value ([5]; 0.2% aqueous solution) was 37.2%. The dwarfing effect ([5]; newmelon young plants, 0.05% and 0.2% aqueous solutions) was “effective”.
